These results are taken from US11236102B2, “Oxabicycloheptane prodrugs” (Lixte Biotechnology, Inc., priority 2015, dated 2022).

As a reminder, the IC50 is the concentration at which inhibition is half-maximal. Read a low IC50 as inhibition by little substance.

In this test the target is protein phosphatase PP2A (Homo sapiens, UniProt P67775). The test can be described thus: Inhibition of purified protein phosphatase PP2A. The test is classed as biochemical. How it is done:
In vivo, endothall has a longer half-life that LB-100 on the order of 6 hours compared to about 1 hour or less for LB-100. […] A half-life of several hours of activity is clinically more desirable that much shorter durations. Modification of substituents of LB-100 provide opportunities to further enhance the clinical usefulness of LB-100 by for example improving oral absorption, uptake into specific organs bearing the disease process, for example, the brain, and further modifying the rate of conversion for effective delivery of parent compound and/or endothall to tissue.

Chain of protein phosphatase PP2A (P67775 whole entry): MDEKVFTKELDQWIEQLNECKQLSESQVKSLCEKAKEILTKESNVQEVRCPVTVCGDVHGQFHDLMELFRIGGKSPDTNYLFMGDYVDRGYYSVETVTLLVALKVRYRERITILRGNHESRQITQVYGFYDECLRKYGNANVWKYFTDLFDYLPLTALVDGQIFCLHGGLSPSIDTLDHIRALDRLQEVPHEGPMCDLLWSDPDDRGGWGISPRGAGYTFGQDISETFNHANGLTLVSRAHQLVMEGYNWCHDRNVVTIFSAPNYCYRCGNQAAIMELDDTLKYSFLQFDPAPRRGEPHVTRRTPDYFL

For the molecule `O=C(O)C1C2CCC(O2)C1C(=O)O` (stereo not shown) [Endothal, 7-oxabicyclo[2.2.1]heptane-2,3-dicarboxylic acid], the IC50 was ~90 nM.
